Patent US20100111838A1, “BRAIN-LOCALIZING POLYPEPTIDES COMPRISING A MULTIVALENT BINDING MOIETY AND IMPROVED METABOLIC STABILITY” (Proteus Sciences Co., Ltd, priority 2007, published 2010)
Where a SMILES comes first, the peptide text is derived from it. The star is where a group is joined. 5FAM = O=C1OC2(c3ccc(O)cc3Oc3cc(O)ccc32)c2ccc(C(=O)*)cc21

Assay: In vitro metabolism test of fluorescein-labeled peptides in liver extract solution (HPLC)
Type: in vitro ADME
Conditions: liver extract solution (supernatant of liver homogenate), mouse liver extract solution, 37° C., read-out: residual ratio of unchanged peptide in liver extract solution
Description: To compare the degree of improved stability observed in [C]K004K, an experiment system that uses a fluorescent pigment as a tracer instead of an isotope labeling for in vitro evaluation using a mouse liver homogenate was produced.
Add two parts of Hanks' solution to one part of mouse liver, and homogenize ↓ Centrifuge and collect supernatant ↓ Add five parts of Hanks' solution (liver extract solution) ↓ Add 5 μL of peptide to 245 μL of liver extract solution ↓
↓ Take 50 μL of sample 0, 5, 30, 60, and 120 minutes after incubation ↓ Add 200 μL, of 70% ethanol (pre-cooled at −30° C.) and then vortex ↓ Add 500 μL of chloroform (pre-cooled at −30° C.) and then vigorously vortex ↓ Centrifuge and collect supernatant ↓ Add an equivalent amount of DMF and then vortex ↓ Centrifuge and collect supernatant ↓ HPLC analysis using Co-sense
[C](Flu)-C004C: A peptide cyclized by adding C to both ends of the 004 sequence and forming a disulfide bond between them was labeled with fluorescein at its N-terminus. [C](Flu)-K004C: A peptide cyclized by adding K to the N terminus and C to the C terminus of the 004 sequence and forming a peptide bond between the N- and C-termini was labeled with fluorescein at its N terminus. [C](Flu)-K004K: A peptide cyclized by adding K to both ends of the 004 sequence and forming a peptide bond between the N- and C-termini was labeled with fluorescein at its N terminus. […]

CC(C)C[C@@H]1NC(=O)[C@H](Cc2c[nH]cn2)NC(=O)[C@H](CCCNC(=N)N)NC(=O)[C@H](C(C)C)NC(=O)[C@H](C(C)C)NC(=O)[C@H](CCCCNC(=O)c2ccc3c(c2)C(=O)OC32c3ccc(O)cc3Oc3cc(O)ccc32)NC(=O)[C@H](CCCCN)NC(=O)[C@H](CCC(N)=O)NC(=O)[C@H](CCC(N)=O)NC1=O [[C](Flu)-K004K] (cyclo(K(5FAM)VVRHLQQK))
remaining at 1 h (60-minute incubation): ~50%

CC(C)C[C@@H]1NC(=O)[C@H](Cc2c[nH]cn2)NC(=O)[C@H](CCCNC(=N)N)NC(=O)[C@H](C(C)C)NC(=O)[C@H](C(C)C)NC(=O)[C@H](CCCCNC(=O)c2ccc3c(c2)C(=O)OC32c3ccc(O)cc3Oc3cc(O)ccc32)NC(=O)[C@H](CS)NC(=O)[C@H](CCC(N)=O)NC(=O)[C@H](CCC(N)=O)NC1=O [[C](Flu)-K004C, reference compound] (cyclo(K(5FAM)VVRHLQQC))
remaining at 5 min (five minutes): 40%
